Experimental data published in ChEMBL document CHEMBL3616397, “Voltage-Gated Sodium Channels: Structure, Function, Pharmacology, and Clinical Indications” (J Med Chem, 2015).

Key:
[1] = target: Sodium channel protein type 9 subunit alpha (Rattus norvegicus, UniProt O08562); assay: Inhibition of rat NaV1.7 channel by two-electrode voltage-clamp method
[2] = target: Sodium channel protein type 8 subunit alpha (Mus musculus, UniProt Q9WTU3); assay: Inhibition of mouse NaV1.6 channel by two-electrode voltage-clamp method
[3] = target: Sodium channel protein type 1 subunit alpha (Mus musculus, UniProt A2APX8); assay: Inhibition of mouse NaV1.1 channel by two-electrode voltage-clamp method
[4] = target: Sodium channel protein type 4 subunit alpha (Mus musculus, UniProt Q9ER60); assay: Inhibition of mouse NaV1.4 channel by two-electrode voltage-clamp method
[5] = Inhibition of mouse NaV1.2 channel by two-electrode voltage-clamp method
[6] = target: T1, Sodium channel protein type 9 subunit alpha (Homo sapiens, UniProt Q15858); assay: Inhibition of human NaV1.7 channel expressed in HEK293 cells by patch clamp electrophysiology assay; format: cell-based
T1 sequence (Q15858 whole entry): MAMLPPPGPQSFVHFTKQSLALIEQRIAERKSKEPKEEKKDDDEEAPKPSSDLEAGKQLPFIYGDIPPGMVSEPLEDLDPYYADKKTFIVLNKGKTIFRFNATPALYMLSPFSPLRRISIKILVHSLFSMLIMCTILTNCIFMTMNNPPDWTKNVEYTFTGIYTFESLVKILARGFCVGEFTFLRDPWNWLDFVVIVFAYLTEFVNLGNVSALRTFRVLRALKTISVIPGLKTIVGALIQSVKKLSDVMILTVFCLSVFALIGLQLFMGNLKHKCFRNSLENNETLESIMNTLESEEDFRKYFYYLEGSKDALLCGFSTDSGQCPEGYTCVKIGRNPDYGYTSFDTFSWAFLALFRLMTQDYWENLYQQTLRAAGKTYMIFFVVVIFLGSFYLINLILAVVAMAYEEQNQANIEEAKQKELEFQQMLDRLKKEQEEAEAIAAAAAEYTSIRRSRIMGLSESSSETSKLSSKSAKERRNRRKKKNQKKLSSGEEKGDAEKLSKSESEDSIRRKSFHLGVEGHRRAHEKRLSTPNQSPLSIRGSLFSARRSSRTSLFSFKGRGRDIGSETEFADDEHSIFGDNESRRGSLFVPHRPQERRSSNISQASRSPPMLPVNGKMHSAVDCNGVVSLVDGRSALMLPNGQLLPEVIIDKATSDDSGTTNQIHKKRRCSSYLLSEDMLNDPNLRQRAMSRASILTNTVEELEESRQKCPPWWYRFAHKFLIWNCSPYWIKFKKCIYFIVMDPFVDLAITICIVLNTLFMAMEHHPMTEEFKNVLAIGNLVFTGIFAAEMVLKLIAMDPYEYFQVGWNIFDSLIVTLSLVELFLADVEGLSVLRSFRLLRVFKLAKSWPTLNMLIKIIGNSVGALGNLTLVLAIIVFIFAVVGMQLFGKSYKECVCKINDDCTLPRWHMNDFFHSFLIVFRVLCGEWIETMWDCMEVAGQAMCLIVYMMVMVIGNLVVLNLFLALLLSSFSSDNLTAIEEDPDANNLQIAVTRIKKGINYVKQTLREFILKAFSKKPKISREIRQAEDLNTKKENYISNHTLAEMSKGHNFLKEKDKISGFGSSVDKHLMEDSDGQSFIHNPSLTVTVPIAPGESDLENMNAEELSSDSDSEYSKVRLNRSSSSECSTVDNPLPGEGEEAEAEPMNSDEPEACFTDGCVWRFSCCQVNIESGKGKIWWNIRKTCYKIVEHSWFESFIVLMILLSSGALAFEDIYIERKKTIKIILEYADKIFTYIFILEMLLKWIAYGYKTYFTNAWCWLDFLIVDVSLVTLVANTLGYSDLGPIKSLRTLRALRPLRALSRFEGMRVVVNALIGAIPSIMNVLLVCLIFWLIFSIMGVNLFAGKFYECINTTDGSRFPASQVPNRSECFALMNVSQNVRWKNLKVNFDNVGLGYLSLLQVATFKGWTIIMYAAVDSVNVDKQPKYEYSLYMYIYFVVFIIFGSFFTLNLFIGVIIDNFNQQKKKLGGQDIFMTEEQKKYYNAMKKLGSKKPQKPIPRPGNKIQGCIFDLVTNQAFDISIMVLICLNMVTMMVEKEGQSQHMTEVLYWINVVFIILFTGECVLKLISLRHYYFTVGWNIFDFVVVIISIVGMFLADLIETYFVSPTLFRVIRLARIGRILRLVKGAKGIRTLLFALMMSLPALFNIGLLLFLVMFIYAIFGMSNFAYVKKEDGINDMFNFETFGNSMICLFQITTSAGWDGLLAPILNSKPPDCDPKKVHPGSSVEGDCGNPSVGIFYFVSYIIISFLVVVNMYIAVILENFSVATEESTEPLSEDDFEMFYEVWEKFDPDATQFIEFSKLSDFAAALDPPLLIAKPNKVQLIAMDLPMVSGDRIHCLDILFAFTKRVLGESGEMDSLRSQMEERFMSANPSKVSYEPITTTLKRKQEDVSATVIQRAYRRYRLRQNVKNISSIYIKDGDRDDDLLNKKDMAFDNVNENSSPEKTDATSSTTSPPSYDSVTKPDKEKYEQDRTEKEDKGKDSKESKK

[7] = target: Sodium channel protein type 1 subunit alpha (Homo sapiens, UniProt P35498); assay: Inhibition of human NaV1.1 channel by patch clamp electrophysiology assay
[8] = target: Sodium channel protein type 8 subunit alpha (Homo sapiens, UniProt Q9UQD0); assay: Inhibition of human NaV1.6 channel by patch clamp electrophysiology assay
[9] = target: Sodium channel protein type 5 subunit alpha (Homo sapiens, UniProt Q14524); assay: Inhibition of human NaV1.5 channel expressed in HEK293 cells by patch clamp electrophysiology assay; format: cell-based
Sodium channel protein type 5 subunit alpha, sequence (Q14524 whole entry): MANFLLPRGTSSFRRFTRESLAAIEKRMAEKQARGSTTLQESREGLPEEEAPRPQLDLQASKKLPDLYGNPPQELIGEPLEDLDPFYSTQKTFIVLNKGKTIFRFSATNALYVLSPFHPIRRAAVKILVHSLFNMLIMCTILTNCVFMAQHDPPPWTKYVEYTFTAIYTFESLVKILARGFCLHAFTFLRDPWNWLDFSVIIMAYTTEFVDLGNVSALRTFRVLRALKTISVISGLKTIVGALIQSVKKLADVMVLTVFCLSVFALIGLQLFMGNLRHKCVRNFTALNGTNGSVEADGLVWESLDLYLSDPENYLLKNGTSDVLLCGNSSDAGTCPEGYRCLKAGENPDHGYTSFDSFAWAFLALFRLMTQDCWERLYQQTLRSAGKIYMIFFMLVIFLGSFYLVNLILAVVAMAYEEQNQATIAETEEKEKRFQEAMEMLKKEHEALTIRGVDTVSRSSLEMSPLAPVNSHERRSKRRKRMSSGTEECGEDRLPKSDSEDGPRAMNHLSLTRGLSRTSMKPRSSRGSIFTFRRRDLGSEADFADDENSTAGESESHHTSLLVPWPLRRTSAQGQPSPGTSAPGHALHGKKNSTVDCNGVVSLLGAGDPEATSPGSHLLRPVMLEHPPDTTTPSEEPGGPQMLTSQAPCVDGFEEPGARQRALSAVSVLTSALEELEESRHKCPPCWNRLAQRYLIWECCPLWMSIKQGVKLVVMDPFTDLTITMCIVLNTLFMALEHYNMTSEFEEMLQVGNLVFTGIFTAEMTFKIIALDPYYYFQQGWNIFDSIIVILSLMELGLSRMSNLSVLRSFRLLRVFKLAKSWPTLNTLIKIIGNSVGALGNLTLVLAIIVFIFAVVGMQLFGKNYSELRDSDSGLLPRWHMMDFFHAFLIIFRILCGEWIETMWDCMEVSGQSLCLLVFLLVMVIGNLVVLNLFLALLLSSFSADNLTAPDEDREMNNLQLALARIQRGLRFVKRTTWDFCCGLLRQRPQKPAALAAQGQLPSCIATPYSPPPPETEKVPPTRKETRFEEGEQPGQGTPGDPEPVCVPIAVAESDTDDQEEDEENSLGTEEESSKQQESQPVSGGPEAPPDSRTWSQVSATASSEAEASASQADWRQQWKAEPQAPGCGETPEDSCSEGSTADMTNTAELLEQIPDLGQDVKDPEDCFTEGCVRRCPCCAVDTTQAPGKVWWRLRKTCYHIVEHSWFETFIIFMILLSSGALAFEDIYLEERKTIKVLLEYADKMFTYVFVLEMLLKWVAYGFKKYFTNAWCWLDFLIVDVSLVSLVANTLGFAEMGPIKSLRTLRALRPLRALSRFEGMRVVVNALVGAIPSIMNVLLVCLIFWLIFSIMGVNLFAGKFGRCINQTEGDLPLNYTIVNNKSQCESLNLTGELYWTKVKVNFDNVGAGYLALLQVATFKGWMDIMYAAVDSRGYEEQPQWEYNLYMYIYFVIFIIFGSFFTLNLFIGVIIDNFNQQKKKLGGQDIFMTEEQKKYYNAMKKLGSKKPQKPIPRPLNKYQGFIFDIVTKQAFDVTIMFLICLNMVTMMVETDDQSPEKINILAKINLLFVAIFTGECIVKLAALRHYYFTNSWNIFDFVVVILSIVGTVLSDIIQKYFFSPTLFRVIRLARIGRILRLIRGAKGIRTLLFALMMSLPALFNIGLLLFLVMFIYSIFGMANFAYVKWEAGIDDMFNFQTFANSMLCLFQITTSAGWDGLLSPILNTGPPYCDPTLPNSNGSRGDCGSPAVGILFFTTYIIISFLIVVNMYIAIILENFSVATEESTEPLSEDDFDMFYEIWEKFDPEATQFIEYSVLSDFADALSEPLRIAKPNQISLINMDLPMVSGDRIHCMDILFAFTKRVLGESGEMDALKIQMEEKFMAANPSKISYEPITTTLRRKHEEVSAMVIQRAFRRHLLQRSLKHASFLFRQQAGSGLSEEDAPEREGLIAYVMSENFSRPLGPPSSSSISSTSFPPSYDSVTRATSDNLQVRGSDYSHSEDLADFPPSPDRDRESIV

[10] = target: Sodium channel protein type 2 subunit alpha (Homo sapiens, UniProt Q99250); assay: Inhibition of human NaV1.2 channel by patch clamp electrophysiology assay
[11] = target: Sodium channel protein type 10 subunit alpha (Homo sapiens, UniProt Q9Y5Y9); assay: Inhibition of human NaV1.8 channel by patch clamp electrophysiology assay
[12] = target: Sodium channel protein type 4 subunit alpha (Homo sapiens, UniProt P35499); assay: Inhibition of human NaV1.4 channel by patch clamp electrophysiology assay
[13] = target: Sodium channel protein type 3 subunit alpha (Homo sapiens, UniProt Q9NY46); assay: Inhibition of human TTX-sensitive NaV1.3 channel expressed in HEK293 cells by patch clamp electrophysiology assay; format: cell-based
[14] = target: T1, Sodium channel protein type 9 subunit alpha; assay: Inhibition of human NaV1.7 channel expressed in HEK293 cells treated for 120 secs by QPatch assay; format: cell-based
[15] = target: Sodium channel protein type 3 subunit alpha (Rattus norvegicus, UniProt P08104); assay: Inhibition of rat NaV1.3 channel
[16] = target: Sodium channel protein type 4 subunit alpha (Rattus norvegicus) (UniProt P15390); assay: Inhibition of rat NaV1.4 channel at 1 uM relative to control
[17] = target: T1, Sodium channel protein type 9 subunit alpha; assay: Inhibition of human NaV1.7 channel by patch clamp electrophysiology assay
[18] = target: Sodium channel protein type 2 subunit alpha (Rattus norvegicus, UniProt P04775); assay: Inhibition of rat NaV1.2 channel
[19] = target: NaV1.5 (sodium channel protein type 5 subunit alpha) (Rattus norvegicus, UniProt P15389); assay: Inhibition of rat NaV1.5 channel at 1 uM relative to control
[20] = Toxicity in mouse; format: organism-based; conditions: in vivo
Mus musculus = assay: Toxicity in mouse administered 15 to 20 mins; format: organism-based; conditions: in vivo
[21] = Selectivity ratio of IC50 for rat NaV1.2 channel expressed in Xenopus laevis oocytes to IC50 for mouse NaV1.6 channel expressed in Xenopus laevis oocytes; format: cell-based
[22] = Selectivity ratio of IC50 for human NaV1.7 channel expressed in Xenopus laevis oocytes to IC50 for mouse NaV1.6 channel expressed in Xenopus laevis oocytes; format: cell-based
[23] = Selectivity ratio of IC50 for rat NaV1.3 channel expressed in Xenopus laevis oocytes to IC50 for mouse NaV1.6 channel expressed in Xenopus laevis oocytes; format: cell-based
[24] = Selectivity ratio of IC50 for rat NaV1.4 channel expressed in Xenopus laevis oocytes to IC50 for mouse NaV1.6 channel expressed in Xenopus laevis oocytes; format: cell-based
[25] = target: T1, Sodium channel protein type 9 subunit alpha; assay: Inhibition of human NaV1.7 channel expressed in HEK cells by patch clamp electrophysiology assay; format: cell-based, HEK293

N=C(N)NCCC[C@@H]1NC(=O)[C@H](CO)NC(=O)[C@H](Cc2cnc[nH]2)NC(=O)[C@H](CC(=O)O)NC(=O)[C@H](CCCNC(=N)N)NC(=O)[C@@H]2CSSC[C@H](N)C(=O)N[C@H]3CSSC[C@H](NC1=O)C(=O)N[C@H](C(=O)O)CSSC[C@H](NC(=O)[C@H](CC(N)=O)NC3=O)C(=O)N[C@@H](CO)C(=O)N[C@@H](CO)C(=O)N[C@@H](CCCCN)C(=O)N[C@@H](Cc1c[nH]c3ccccc13)C(=O)N2
Kd [1]: 0.29 µM
IC50 [2]: 0.24 µM
Kd [3]: 0.29 µM
IC50 [4]: 0.09 µM
Kd [5]: 0.005 µM

O=C(Nc1ccc(S(=O)(=O)Nc2nccs2)cc1)C(c1ccccc1)c1ccccc1
IC50 [6]: > 10 µM
IC50 [7]: < 0.02 µM
IC50 [8]: > 10 µM
IC50 [9]: > 10 µM
IC50 [10]: 0.24 µM
IC50 [11]: > 10 µM
IC50 [12]: > 10 µM
IC50 [13]: < 0.02 µM

Cc1ccc(OCC(C)C)c(-c2cccc([C@@H]3CC[C@]4(CCN(C)C4=O)N3)c2F)c1
IC50 [14]: 0.251 µM

CC[C@H](C)[C@H](NC(=O)[C@H](CCC(=O)O)NC(=O)[C@H](Cc1ccc(O)cc1)NC(=O)[C@H](CCCCN)NC(=O)[C@H](CS)NC(=O)[C@H](Cc1c[nH]c2ccccc12)NC(=O)[C@H](CCCNC(=N)N)NC(=O)[C@H](Cc1cnc[nH]1)NC(=O)[C@H](CCCCN)NC(=O)[C@H](CCCNC(=N)N)NC(=O)[C@H](CO)NC(=O)[C@H](CS)NC(=O)[C@@H](NC(=O)[C@H](CC(C)C)NC(=O)[C@H](CC(N)=O)NC(=O)[C@H](CO)NC(=O)[C@H](CO)NC(=O)[C@H](CCCCN)NC(=O)[C@H](CS)NC(=O)[C@H](CS)NC(=O)[C@H](CCC(N)=O)NC(=O)[C@H](CC(=O)O)NC(=O)[C@H](CC(N)=O)NC(=O)[C@H](CO)NC(=O)[C@@H]1CCCN1C(=O)[C@H](CC(N)=O)NC(=O)[C@H](CS)NC(=O)CNC(=O)[C@H](CCCCN)NC(=O)CNC(=O)[C@H](Cc1ccccc1)NC(=O)CNC(=O)[C@H](CC(C)C)NC(=O)[C@H](CS)NC(=O)[C@@H](N)CCC(=O)O)C(C)C)C(N)=O
IC50 [15]: 0.375 µM
inhibition [16]: 7.3%
IC50 [17]: 0.021 µM
IC50 [18]: 0.036 µM
inhibition at 1 µM [19]: 0%

COc1ccc(C(=O)O[C@H]2CC[C@@]3(C)[C@@H]4CC[C@H]5[C@]6(O)C[C@H](O)[C@@]7(O)[C@@H](CN8C[C@@H](C)CC[C@H]8[C@@]7(C)O)[C@]6(O)C[C@@]53O[C@]24O)cc1OC [VERATRIDINE]
LD50 [20]: 9 mg/kg

Nc1nc2cc(-c3cc(Cl)ccc3Oc3cc(F)c(S(=O)(=O)Nc4ncns4)cc3F)ccc2[nH]1
IC50 [6]: 0.03 µM
IC50 [9]: > 10 µM

CC1=CN=C(C)C1C(=O)O[C@@H](C)C1=CC[C@@]23OCCN(C)C[C@@]12C[C@@H](O)[C@]12O[C@@]4(O)CC[C@@]1(C)[C@H](CC=C32)C4 (stereo partly specified)
LD50 (Mus musculus): 0.002 mg/kg

N=C1N[C@H]2OC3C4(N1)C2[C@H]1O[C@]3(O)OC([C@H]4O)[C@]1(O)CO
Ratio IC50 [21]: 161
Ratio IC50 [22]: 163
Ratio IC50 [23]: 44
Ratio IC50 [24]: 127

CCCOc1ncccc1-c1cc(C(=O)NS(C)(=O)=O)ccc1Oc1ccc(Cl)cc1
IC50 [25]: 0.014 µM

O=S(=O)(Nc1ncns1)c1cc(F)c(OC[C@@H]2CNCC[C@H]2c2ccc(Cl)c(F)c2)cc1F
IC50 [9]: > 10 µM

CN1CC[C@]2(CC[C@@H](c3cc(-c4cccc(OC(F)(F)F)c4)ccn3)N2)C1=O
IC50 [14]: 0.251 µM

Cc1cc(-c2ccc(C(F)(F)F)cc2)nc([C@@H]2CC[C@]3(CCN(C)C3=O)N2)n1
IC50 [14]: 2 µM
